These results are taken from US10508092B2, “Synthesis of novel analogs of diptoindonesin G, compounds formed thereby, and pharmaceutical compositions containing them” (Wisconsin Alumni Research Foundation, priority 2016, dated 2019).

Series [1] deals with murine leukemia P-388 cells. The following applies: cited from earlier work.
Series [2] deals with estrogen receptor β (ERβ). Nature of the series: Western blot of FLAG-ERβ levels in Hs578T-ERβLuc Dox-inducible cells. The following applies: Hs578T-ERβLuc Dox-inducible line, 10 μM, 5 days, Western blot (anti-FLAG). Type of series: cell-based, human. As to the method: FIGS. 2A, 2B, and 2C together depict the biological activity of the subject compounds on estrogen receptor β (ERβ) levels in human breast cancer cells.
(§1) The biological activity of these four analogs were then compared with the parent compound Dip G following our previous protocol (Zhao et al., supra). See FIGS. 1A, 1B, 1C, 2A, 2B, and 2C. Cells were treated with each compound at 10 μM concentration in order to evaluate how well each modified the stability of ERα and ERβ.
(§2) MCF7 cells were treated with Dip G and analogs for 24 hours before harvesting. Hs578T-tet-on-ERβ cells (ATCC HTB-126; American Type Culture Collection, Manassas, Va.) were treated with doxycycline for 24 hours to induce ERβ expression. Then the cells were treated with compounds for 5 days before harvesting. 15 μg of total cell lysates were resolved on SDS-PAGE and Western blot analyses were performed as previously described using ERα antibody (HC-20, Santa Cruz Biotechnology, Inc., Dallas, Tex.) and anti-FLAG antibody (F7425, Sigma-Aldrich Co., LLC, St. Louis, Mo.) for ERβ.^3
(In western blotting, separated proteins are transferred to a membrane and probed.)

Series [3] deals with ERαY537S mutant protein. The series is described as follows: ELISA of ERα protein in T47D-ERαY537S cells. Type of series: cell-based, human. The following applies: 24 hrs, FIG. 5. As to the method: T47D cells were treated with DMSO, Fulvestrant, Dip G and a Dip G derivative (Dip G-D1, compound 17) for 24 hrs. ERα protein amounts in cell lysate were quantified using ELISA kit (R&D systems) and normalized to standard curve using purified ERα protein. The experiments were performed in triplicate. Data are represented as mean±SD, n=3.
(T47D ERα WT is available from the American Type Culture Collection, Manassas, Va.; accession no. HTB-133. The T47D ERα Y537S cell line is described in Wardell et al 2015) “Efficacy of SERD/SERM Hybrid-CDK4/6 Inhibitor Combinations in Models of Endocrine Therapy-Resistant Breast Cancer,” Clin Cancer Res. 21(22):5121-5130. […] McCormack, P. and Sapunar, F. (2008) “Pharmacokinetic profile of the fulvestrant loading dose regimen in postmenopausal women with hormone receptor-positive advanced breast cancer,” Clinical breast cancer 8:347-351.

Series [4] concerns ERα Y537S. The series is described as follows: ERE-Luciferase activity of ERα Y537S in T47D cells. Format: cell-based, human. Here is the method: FIG. 6 is a histogram depicting Dip G- and Dip G-D1-inhibited E2-dependent ERE-Luciferase activities of wildtype ERα or ERα Y537S in T47D cells. Cells were co-treated with 10 nM E2 and Dip G or Dip G-D1 (10 μM) for 24 hrs. The experiments were performed in triplicate. Data are represented as mean±SD, n=3.
See Merenbakh-Lamin, K., Ben-Baruch, N., Yeheskel, A., Dvir, A., Soussan-Gutman, L., Jeselsohn, R., Yelensky, R., Brown, M., Miller, V. A., Sarid, D. et al. (2013) “D538G mutation in estrogen receptor-alpha: A novel mechanism for acquired endocrine resistance in breast cancer,” Cancer research, 73:6856-6864 and Jeselsohn, R., Yelensky, R., Buchwalter, G., Frampton, G., Meric-Bernstam, F., Gonzalez-Angulo, A. M., Ferrer-Lozano, J., Perez-Fidalgo, J. A., Cristofanilli, M., Gomez, H. et al. (2014) “Emergence of constitutively active estrogen receptor-alpha mutations in pretreated advanced estrogen receptor-positive breast cancer,” Clinical cancer research: an official journal of the American Association for Cancer Research, 20:1757-1767. Using these ERα mutant expressing cell lines, we will: (a) compare ERα degradation rate induced by fulvestrant, Dip G and Dip G-D1 using ELISA assay as shown in FIG. 5; (b) measure IC50 of Dip G and Dip G analogues to inhibit ERα transcriptional activity in luciferase assay.

Series [5] is described as follows: Toxicity observations in treated mice (AST ELISA, gross tissue, injection site). Type of series: in vivo. Here is the method: Dip G was synthesized as described and formulated for the in vivo treatment. Dip G was prepared by dissolving the stock powder in 100% DMSO to a final concentration of 50 mg/ml. This stock solution was then diluted 1:5 into a 40% polyethylene glycol (PEG300)/40% normal saline (0.9% NaCl) solution to a final concentration of 20% Dip G solution. […] To determine MTD, escalating doses of Dip G dissolved in the aforementioned formulation were injected retro-orbitally or by oral gavage daily, five days out of seven to determine the MTD. […] (Data not shown.) Dip G was intra-tumorally delivered to ERα-positive T47D xenografted mice three times a week and the tumors were monitored for three weeks. […] (AST ELISAs are available commercially from several suppliers, including Abcam, Cambridge, Mass.)
Mice were monitored twice weekly for weight changes and tumor growth (measured in diameter and volume) with calipers. Following tumors reaching an appropriate size (˜5 mm in diameter, taking approximately 3 months after grafting), intra-tumoral injections were begun with vehicle containing 20 mg/kg of Dip G or control vehicle in a total volume of 50 μL split between tumors on each mammary fat pad. Three mice (6 tumors) received control injections and eight (16 tumors) received Dip G. Injections were administered 3 times per week with at least one day of rest between injections, for a total of 10-12 injections. Cohorts were sacrificed by cage individually in numerical order, beginning with the 10th injection and sacrificing one cage per injection for pharmacokinetic time points from that injection onward. In mice with very small tumors, dosing was switched from intra-tumoral to subcutaneous at later time points.
In general terms: In an ELISA, binding on a coated surface is turned into a signal by an enzyme label.

Series [6] relates to estrogen receptor β (ERβ). The following applies: breast cancer, Zhao et al. 2015; cited from earlier work.
Series [7] has as its system estrogen receptor α (ERα). The series is described as follows: Western blot of ERα levels in MCF7 cells. Type of series: cell-based, human. As to the method:
FIGS. 1A, 1B, and 1C together depict the biological activity of the subject compounds on estrogen receptor α (ERα) levels in human breast cancer cells.
as §1, §2

The test system of series [8] is estrogen receptor α (ERα). The following applies: breast cancer, Zhao et al. 2015; cited from earlier work.

Structures are written as SMILES. Entries after “also recorded” stand apart in the source; their conditions may differ.

For `O=C1c2c(O)cc(O)cc2-c2c(-c3ccc(O)cc3)oc3cc(O)cc1c23` [Dip G, diptoindonesin G], the anti-proliferation effect entry in series [1] was “anti-proliferation effect”. Also, the ERβ stability entry in series [2] was “strongly stabilized”. Besides, the “degradation of ERαY537S mutant protein” value in series [3] is listed as “more effective than 100 nM fulvestrant”. For the same molecule, the “E2-dependent ERE-Luciferase activity of ERα Y537S” value in series [4] (T47D cells, co-treated with 10 nM E2, 10 μM, 24 hrs) is “inhibited”. Moreover, the “ligand-independent transcription activity of ERα Y537S mutant” value in series [4] (T47D expressing ERα Y537S, preliminary data) was “can be inhibited”. Moreover, in series [5] (AST ELISA assay), the liver toxicity entry is “undetectable”. In series [5] (aspartate aminotransferase ELISA, treated xenograft mice), the AST activity entry is listed as “around 70 milliunits/mL”. For the same molecule, in series [5] (high concentrations), the toxicity in vivo result was “No obvious toxicity”. Also, the “signs around the tumor and the site of injection” value in series [5] (intra-tumoral injection, not observed with vehicle only) was “subcutaneous bleeding, bruising, and discoloration”. Moreover, the gross tissue damage result in series [5] (liver, lung, kidney, brain, and heart) is recorded as “no gross tissue damages were observed”. The “stability of ERβ” value in series [6] is on record as “increases the stability”. In addition, in series [7] (10 μM, compared to untreated cells, gel blot FIG. 4), the “amount of endogenous ERα in MCF7 cells” value is on record as “degrades endogenous ERα; also recorded: greatly decreased”. Moreover, the ERα stability result in series [7] (MCF7 cells, 10 μM, 24 hours, Western blot) was “decreased ERα stability with the largest change”. For the same molecule, the “endogenous ERα protein levels” value in series [7] (MCF7 cells, FIG. 4) is reported as “less than 20%”. The “stability of ERα” value in series [8] is listed as “decreases the stability”.
